The record followed here is ChEMBL document CHEMBL1201862, “PubChem BioAssay data set” (2004).

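In this assay, cells in 96-well plates receive the compound at five concentrations for 48 hours. Endpoints are linearly interpolated between the surrounding concentrations. At the GI50, growth is halved.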 Active and inactive are the calls of the source. Cut-off read from the data, not from the text of the source: active = GI50 up to about 1.1 µM and inactive = higher. Square brackets hold non-standard residues; d marks the D form. Peptide text beside a SMILES is read from it. * marks the point of attachment. Boc = CC(C)(C)OC(=O)*; OBn = c1ccc(CO*)cc1

Assay in all cases: inhibition of tumour cell growth, NCI panel, 48 h
Test [1] deals with MDA-MB-435.
Test [2] has as its system EKVX.
Test [3] relates to UACC-62.
Test [4] relates to M14.
Test [5] has as its system U-251.
For test [6], the system named is MDA-N.
For test [7], the system named is SF-295.
For test [8], the system named is SR.
In test [9] the test system is NCI-H460.
Test [10] concerns CCRF-CEM.
The subject of test [11] is SN12C.
In test [12] the test system is SW-620.
In test [13] the test system is HOP-92.
In test [14] the test system is A549.
For test [15], the system named is PC-3.
Test [16] concerns OVCAR-5.
The subject of test [17] is HCT-15.
For test [18], the system named is MCF7.
For test [19], the system named is HCT-116.
Test [20] has as its system NCI-H522.

Take `C=CCOc1ccccc1C1(O)c2ccccc2C2=NCCCN21` (stereo unspecified): the GI50 in [1] is 30.9 µM (inactive); in [2], 56.1 µM (inactive); in test [3], 40.9 µM (inactive); in test [4] it was 18.7 µM (inactive); in test [5], 46.5 µM (inactive); in test [6], 39.9 µM (inactive). Besides, the GI50 in test [7] is 31 µM (inactive); in test [8], > 100 µM (inactive); in [9], 78.9 µM (inactive); in test [10], 33 µM (inactive); in test [11], 74.1 µM (inactive); in [12] it was 56.5 µM (inactive). For the same compound, the GI50 in test [13] was 56.9 µM (inactive); in test [14], > 100 µM (inactive); in test [15] it was 20.7 µM (inactive); in [16], 32.3 µM (inactive); in test [17], over 100 µM; in test [18] it was 31.5 µM (inactive). Further, the GI50 in test [19] is 34.2 µM (inactive).
Consider `C[C@@H](NC(=O)CNC(=O)OC(C)(C)C)C(=O)N[C@@H](Cc1ccccc1)C(=O)OCc1ccccc1` (Boc-Gly-[dA]-Phe-OBn), for which the GI50 in test [1] is 32.4 µM (inactive); in test [2], 97.7 µM (inactive); in test [3], 34 µM (inactive); in test [4], 19.8 µM (inactive); in [5], 71.8 µM (inactive); in [6], 36.7 µM (inactive). For the same compound, the GI50 in test [7] is > 100 µM (inactive); in test [8] it was 19.5 µM (inactive); in test [10] it was 19.5 µM (inactive); in test [11], > 100 µM (inactive); in test [12], 61.7 µM (inactive); in test [13], 17.8 µM (inactive). The GI50 was > 100 µM (inactive) in test [14]; 49 µM (inactive) in [15]; 26.3 µM (inactive) in test [20]; > 100 µM (inactive) in test [16]; over 100 µM in test [17]; > 100 µM (inactive) in test [18]. For the same compound, the GI50 in test [19] is 47.3 µM (inactive).
For the compound `O=C1C(Cl)=C(NCCCN2CCOCC2)C(=O)c2c(O)ccc(O)c21`, the GI50 in test [1] is 1.85 µM (inactive); in [2], 1 µM (active); in [3] it was 1.77 µM (inactive); in test [4], 1.96 µM (inactive); in test [5], 2.19 µM (inactive); in test [6], 1.72 µM (inactive). Moreover, the GI50 in [7] is 2.53 µM (inactive); in test [8], 2.58 µM (inactive); in test [9], 3.13 µM (inactive); in test [10] it was 1 µM (active); in test [11] it was 2.01 µM (inactive); in test [12], 1.95 µM (inactive). In addition, the GI50 in test [14] was 3.9 µM (inactive); in test [15], 2.96 µM (inactive); in [16], 1.71 µM (inactive); in [17], 1.26 µM; in [18], 1.55 µM (inactive); in [19] it was 1.59 µM (inactive).
In the case of `N/C(=N\O)NCCN1CCCCCCC1`, the GI50 in test [1], in [2], in [3], in test [4], in test [6] and in [7] was > 100 µM (inactive) in each case. Moreover, the GI50 in test [8] was > 100 µM (inactive); in test [9] it was > 100 µM (inactive); in test [10], > 100 µM (inactive); in test [11], 37.2 µM (inactive); in test [12], > 100 µM (inactive); in test [13] it was > 100 µM (inactive). The GI50 in test [14] is > 100 µM (inactive); in [15] it was 28.4 µM (inactive); in test [20] it was > 100 µM (inactive); in test [16], > 100 µM (inactive); in test [17], over 100 µM; in test [18], 26.5 µM (inactive). The GI50 in test [19] is 12.1 µM (inactive).
Take `CNc1cccc(-c2cc(O)c3cc4c(cc3n2)OCO4)c1`: the GI50 in test [1] was 0.0378 µM (active); in test [3] it was 0.153 µM (active); in [4] it was 0.224 µM (active); in test [5] it was 0.267 µM (active); in test [6], 0.0296 µM (active); in test [7], 2.28 µM (inactive). For the same compound, the GI50 is 0.0407 µM (active) in [8]; 0.436 µM (active) in [9]; 0.236 µM (active) in test [10]; 0.553 µM (active) in test [11]; 0.283 µM (active) in test [12]; 0.533 µM (active) in [13]. Besides, the GI50 in [14] is 0.664 µM (active); in test [15] it was 0.254 µM (active); in test [20], 0.127 µM (active); in test [16], 1.79 µM (inactive); in [17], 0.272 µM; in test [18] it was 0.293 µM (active). In addition, the GI50 in test [19] was 0.236 µM (active).
As to `Oc1cc(-c2ccccc2)nc2c(S)cccc12`, the GI50 in [1], in test [3], in test [4], in test [5], in test [6] and in test [7] was > 100 µM (inactive) each time. Further, the GI50 in [8] was > 100 µM (inactive); in test [9], > 100 µM (inactive); in test [10], > 100 µM (inactive); in test [11] it was > 100 µM (inactive); in test [12] it was > 100 µM (inactive); in [13], 63.2 µM (inactive). The GI50 in test [14] was > 100 µM (inactive); in test [15] it was 47.3 µM (inactive); in test [20] it was > 100 µM (inactive); in test [16], > 100 µM (inactive); in test [17], over 100 µM; in test [18], > 100 µM (inactive). Further, the GI50 in [19] is > 100 µM (inactive).
With `Cc1cc(C)n(C(=O)CSc2nnc(SCC(=O)n3nc(C)cc3C)s2)n1`, the GI50 is > 100 µM (inactive) in test [1]; 25.5 µM (inactive) in test [2]; > 100 µM (inactive) in test [3]; > 100 µM (inactive) in test [4]; > 100 µM (inactive) in test [5]; > 100 µM (inactive) in [6]. In addition, the GI50 in test [7], in test [8], in test [9], in test [10], in [11] and in [12] was > 100 µM (inactive) throughout. Also, the GI50 in test [13] was > 100 µM (inactive); in test [14], > 100 µM (inactive); in test [15] it was > 100 µM (inactive); in [16], > 100 µM (inactive); in test [17] it was over 100 µM; in test [18], > 100 µM (inactive). The GI50 in test [19] is > 100 µM (inactive).
For the compound `N#CC(C#N)=C1C(=Cc2ccc(OCCCCCCCCCCSSCCCCCCCCCCOc3ccc(C=C4C(=C(C#N)C#N)c5ccccc5C4=C(C#N)C#N)cc3)cc2)C(=C(C#N)C#N)c2ccccc21`, the GI50 is 38.7 µM (inactive) in test [1]; 20.9 µM (inactive) in test [2]; 20.3 µM (inactive) in [4]; 19.5 µM (inactive) in test [5]; 34.8 µM (inactive) in [6]; 20.1 µM (inactive) in [7]. Besides, the GI50 in test [8] was 19.2 µM (inactive); in test [9], 22.1 µM (inactive); in [12], 23.3 µM (inactive); in test [13], 17.7 µM (inactive); in test [14], 15.5 µM (inactive); in [15], 20.8 µM (inactive). In addition, the GI50 is 17.8 µM (inactive) in test [20]; 20.8 µM (inactive) in test [16]; 16.7 µM in test [17]; 20.8 µM (inactive) in test [18]; 17.1 µM (inactive) in [19].
Consider `C1CCCCC2(CCCCCCCCC3(CCC1)SCCS3)SCCS2`, for which the GI50 in test [1], in test [2], in test [3], in test [4], in [5] and in test [6] was > 100 µM (inactive) in each case. Moreover, the GI50 in test [7], in test [8], in test [9], in [11], in [12] and in [13] was > 100 µM (inactive) throughout. The GI50 in test [14] was > 100 µM (inactive); in test [15], > 100 µM (inactive); in test [20], > 100 µM (inactive); in test [16] it was > 100 µM (inactive); in test [17] it was over 100 µM; in [18], > 100 µM (inactive). The GI50 in test [19] was > 100 µM (inactive).
Consider `Cc1nc2c(O)cc3c4c(n(Cc5ccccc5)c3c2nc1C)C(=O)CCC4`, for which the GI50 in test [1] was > 100 µM (inactive); in [2], > 100 µM (inactive); in test [3], 24.5 µM (inactive); in test [4], 53.2 µM (inactive); in [5], 12 µM (inactive); in test [6], 45.9 µM (inactive). The GI50 in test [7] was 34 µM (inactive); in [8], 18 µM (inactive); in test [9], 83 µM (inactive); in [10], > 100 µM (inactive); in [11], > 100 µM (inactive); in [12], > 100 µM (inactive). Also, the GI50 is 15.4 µM (inactive) in test [13]; 50.5 µM (inactive) in test [14]; 49.7 µM (inactive) in [15]; > 100 µM (inactive) in [16]; over 100 µM in test [17]; 19.1 µM (inactive) in test [18]. For the same compound, in test [19], the GI50 is 34.4 µM (inactive).
`CC(=O)[C@]12OC(=O)C3=C1[C@H](CC[C@@H]3C)[C@@H](C)C[C@H]2C=C(C)C`: the GI50 was 7.93 µM (inactive) in test [1]; 5.68 µM (inactive) in [3]; 8.39 µM (inactive) in test [4]; 7.8 µM (inactive) in [5]; 7.59 µM (inactive) in [6]; 6.4 µM (inactive) in test [7]. The GI50 was 7.87 µM (inactive) in test [8]; 8.63 µM (inactive) in [9]; 9.44 µM (inactive) in test [10]; 8.69 µM (inactive) in test [11]; 7.55 µM (inactive) in test [12]; 1.43 µM (inactive) in test [13]. For the same compound, the GI50 in [14] is 7.48 µM (inactive); in test [15], 9.2 µM (inactive); in test [20], 5.36 µM (inactive); in test [16] it was 8.11 µM (inactive); in test [17], 7.96 µM; in [18] it was 8.85 µM (inactive). For the same compound, the GI50 in test [19] is 6.55 µM (inactive).
